Our source for the IC50 values is US11485736B2 (KSQ Therapeutics, Inc., priority 2018, dated 2022).

pIC50: −log10 of the molar value.

For orientation: pIC50 means −log10 of the IC50, conventionally taken in molar units.

Chain of USP1/UAF1 (O94782 whole entry): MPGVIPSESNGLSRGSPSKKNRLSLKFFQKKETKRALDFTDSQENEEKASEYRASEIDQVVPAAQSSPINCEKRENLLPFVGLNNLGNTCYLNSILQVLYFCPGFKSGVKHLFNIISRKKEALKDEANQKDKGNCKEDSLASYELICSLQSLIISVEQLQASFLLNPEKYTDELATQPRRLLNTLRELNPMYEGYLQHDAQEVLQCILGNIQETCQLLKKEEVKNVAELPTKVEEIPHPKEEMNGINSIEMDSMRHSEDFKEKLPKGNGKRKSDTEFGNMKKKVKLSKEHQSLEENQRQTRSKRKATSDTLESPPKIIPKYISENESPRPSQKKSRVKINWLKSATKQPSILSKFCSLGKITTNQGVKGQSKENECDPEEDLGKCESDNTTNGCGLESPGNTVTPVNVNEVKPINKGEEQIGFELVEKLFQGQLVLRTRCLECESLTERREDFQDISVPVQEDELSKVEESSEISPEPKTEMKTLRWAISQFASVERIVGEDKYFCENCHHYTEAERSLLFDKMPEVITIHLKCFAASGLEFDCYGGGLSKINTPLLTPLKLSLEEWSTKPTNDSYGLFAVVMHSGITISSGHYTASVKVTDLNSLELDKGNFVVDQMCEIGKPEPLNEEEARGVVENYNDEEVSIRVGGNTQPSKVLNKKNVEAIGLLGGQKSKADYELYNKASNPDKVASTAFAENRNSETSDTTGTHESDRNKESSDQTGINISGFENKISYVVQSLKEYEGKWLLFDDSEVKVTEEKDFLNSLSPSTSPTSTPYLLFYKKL
Chain of USP1/UAF1 (Q8TAF3 whole entry partner): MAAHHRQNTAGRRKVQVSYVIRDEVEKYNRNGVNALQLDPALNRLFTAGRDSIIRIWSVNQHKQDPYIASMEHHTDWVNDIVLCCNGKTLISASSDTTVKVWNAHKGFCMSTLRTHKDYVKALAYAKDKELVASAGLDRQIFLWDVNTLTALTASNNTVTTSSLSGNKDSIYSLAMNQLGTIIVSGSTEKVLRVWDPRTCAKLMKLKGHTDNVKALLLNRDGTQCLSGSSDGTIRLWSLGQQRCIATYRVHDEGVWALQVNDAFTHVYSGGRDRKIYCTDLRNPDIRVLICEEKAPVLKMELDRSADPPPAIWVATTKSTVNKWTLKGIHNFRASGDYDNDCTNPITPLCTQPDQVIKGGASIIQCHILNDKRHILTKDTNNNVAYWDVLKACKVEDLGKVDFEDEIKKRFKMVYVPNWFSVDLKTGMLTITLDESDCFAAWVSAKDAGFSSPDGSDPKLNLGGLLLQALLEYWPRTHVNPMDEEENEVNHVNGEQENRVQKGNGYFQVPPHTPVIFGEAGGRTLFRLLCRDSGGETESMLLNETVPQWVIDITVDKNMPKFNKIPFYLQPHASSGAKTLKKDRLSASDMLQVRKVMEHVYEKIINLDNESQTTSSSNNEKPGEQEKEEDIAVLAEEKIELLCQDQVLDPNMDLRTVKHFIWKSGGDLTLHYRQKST

The target in the first experiment is USP1/UAF1 (Homo sapiens (Human), UniProt O94782). The experiment in a line: Deubiquitination assay for USP1/UAF1 activity (ubiquitin-rhodamine 110). Type of experiment: biochemical. The following applies: Table 2; 0.05 nM USP1/UAF1, 150 nM ubiquitin-rhodamine. As to the method:
Certain Compounds of the Disclosure were assessed for USP1/UAF1 activity in a Ubiquitin Rhodamine assay modified from those described previously.
Deubiquitinase activity was measured using ubiquitin-rhodamine 110 as a substrate. Cleavage of the amide bond between rhodamine and the c-terminal glycine of ubiquitin yields an increase in fluorescence signal. The assay was conducted in 20 ul total volume of assay buffer (50 mM Tris-HCl, pH 7.8, 0.5 mM EDTA, 0.01% Bovine Serum Albumin, 1 mM DTT, 0.01% Tween-20), and 0.05 nM USP1/UAF1 enzyme.
Compounds, dissolved in DMSO were tested in dose response format, beginning at 10 uM.
Compounds depicted below were added to enzyme/assay buffer mix and incubated 10 min.
Data for all assay formats was calculated as percent inhibition compared with control wells. […] IC50 values were calculated using the standard four parameter curve fitting algorithm in either Prism GraphPad (La Jolla, Calif.) software, or Collaborative Drug Discovery (Burlingame, Calif.) CDD Vault.
`Cn1cc(C(F)(F)F)nc1-c1ccc(Cn2ncc3cnc(-c4ccccc4S(C)(=O)=O)nc32)cc1` [drawing 707] had a pIC50 of 6.70 to 7.00. Still for that read-out and setting: the figure for `CCS(=O)(=O)c1ccccc1-c1ncc2cnn(Cc3ccc(-c4nc(C(F)(F)F)cn4C)cc3)c2n1` [drawing 709] is 6.70 to 7.00; for `Cc1cc(C(F)F)nn1-c1ccc(Cn2ncc3cnc(-c4cccnc4C(C)C)nc32)cc1` [drawing 710] it is 7.00 to 8.00. Still for that read-out and setting: for `COc1nccc(C)c1-c1ncc2cnn(Cc3ccc(-c4nc(C(F)(F)F)cn4C)cc3)c2n1` [drawing 711] the value was 7.00 to 8.00. Same read-out and setting: the figure for `COc1ncnc(C)c1-c1ncc2cnn(Cc3ccc(-c4nc(C(F)(F)F)cn4C)cc3)c2n1` [drawing 712] is 7.00 to 8.00. For `Cc1cc(C(F)(F)F)nn1-c1ccc(Cn2ncc3cnc(-c4cccnc4C(C)C)nc32)cc1` [drawing 713], the pIC50 is 7.00 to 8.00. In the case of `COc1cccc(OC)c1-c1ncc2cnn(Cc3ccc(-c4nc(C(F)(F)F)cn4C)cc3)c2n1` [drawing 714], the pIC50 is 7.00 to 8.00. In turn, `COc1ccccc1-c1ncc2cnn(Cc3ccc(-c4nc(C(F)(F)F)cn4C)cc3)c2n1` [drawing 715] gave a pIC50 of 7.00 to 8.00. Still for that read-out and setting: for `Cc1cc(C(F)(F)F)nn1-c1ccc(Cn2ncc3cnc(-c4ccccc4C(C)C)nc32)cc1` [drawing 716] the value was 7.00 to 8.00; for `COc1cccc(C)c1-c1ncc2cnn(Cc3ccc(-c4nc(C(F)(F)F)cn4C)cc3)c2n1` [drawing 717], 7.00 to 8.00. Same read-out and setting: the figure for `CC(C)c1ccccc1-c1ncc2ncn(Cc3ccc(-c4nc(C(F)(F)F)cn4C)cc3)c2n1` [drawing 719] is 7.00 to 8.00; for `COc1ncnc(C2CC2)c1-c1ncc2cnn(Cc3ccc(-c4nc(C(F)(F)F)cn4C)cc3)c2n1` [drawing 720] it is 7.00 to 8.00; for `CC(C)c1ncccc1-c1ncc2cnn(Cc3ccc(-c4nc(C(F)(F)F)cn4C)cc3)c2n1` [drawing 721] it is 7.00 to 8.00. Same read-out and setting: the figure for `CSc1cccc(C)c1-c1ncc2cnn(Cc3ccc(-c4nc(C(F)(F)F)cn4C)cc3)c2n1` [drawing 722] is 7.00 to 8.00; for `COc1ncnc(C2CC2)c1-c1ncc2cnn(Cc3ccc(-n4nc(C(F)(F)F)cc4C)cc3)c2n1` [drawing 723] it is over 8.00; for `COc1cccc(C2CC2)c1-c1ncc2cnn(Cc3ccc(-c4nc(C(F)(F)F)cn4C)cc3)c2n1` [drawing 724] it is over 8.00.

For `CC(C)c1ccccc1-c1ncc2cnn(Cc3ccc(-c4nc(C(F)(F)F)cn4C4CN(C)C4)cc3)c2n1` [drawing 725], the pIC50 was over 8.00. `CC(C)c1ccccc1-c1ncc2cnn(C(C)c3ccc(-c4nc(C(F)(F)F)cn4C)cc3)c2n1` (centres unmarked) [drawing 726] gave a pIC50 of over 8.00. `CC(C)c1c(F)cccc1-c1ncc2cnn(Cc3ccc(-c4nc(C(F)(F)F)cn4C)cc3)c2n1` [drawing 728] gave a pIC50 of over 8.00.

In turn, `Cc1nn(Cc2ccc(-c3nc(C(F)(F)F)cn3C)cc2)c2nc(-c3ccccc3C(C)C)ncc12` [drawing 729] showed a pIC50 of over 8.00.

Regarding `CC(C)c1ccccc1-c1ncc2cnn(Cc3ccc(-c4nc(C(F)(F)F)cn4C)cc3)c2n1` [drawing 730], the pIC50 was over 8.00.

The experiment is the same for the next values; noted with them: Table 3; 0.05 nM USP1/UAF1, 150 nM ubiquitin-rhodamine.
`COc1ncnc(C2CC2)c1-c1ncc2cnn([C@H](C)c3ccc(-c4nc(C(F)(F)F)cn4C)cc3)c2n1` (single isomer, unassigned) [drawing 759] showed a pIC50 of 7.00 to 8.00. On to `CCn1cc(C(F)(F)F)nc1-c1ccc(Cn2ncc3cnc(-c4c(OC(F)F)ncnc4C4CC4)nc32)cc1` [drawing 731], for which the pIC50 was over 8.00. The same measure, in the same setting: for `COc1ncnc(C2CC2)c1-c1ncc2cnn(Cc3ccc(-c4nc(C(F)(F)F)cn4C4CCC4)cc3)c2n1` [drawing 732] the value was over 8.00; for `CCOc1ncnc(OCC)c1-c1ncc2cnn(Cc3ccc(-c4nc(C(F)(F)F)cn4CC)cc3)c2n1` [drawing 733], over 8.00; for `Cc1cnn(C(C)C)c1-c1ncc2cnn(Cc3ccc(-n4nc(C(F)(F)F)cc4C)cc3)c2n1` [drawing 734], over 8.00. `CCOc1cc(C(F)(F)F)nn1-c1ccc(Cn2ncc3cnc(-c4c(OC)ncnc4C4CC4)nc32)cc1` [drawing 735] gave a pIC50 of over 8.00. Still for that read-out and setting: for `COc1ncnc(C2CC2)c1-c1ncc2cnn(Cc3ccc(-c4cn(C)c(C(F)(F)F)n4)cc3)c2n1` [drawing 736] the value was 7.00 to 8.00; for `COc1ncnc(C2CC2)c1-c1ncc2cnn(Cc3ccc(-n4nc(C(F)(F)F)cc4OC)cc3)c2n1` [drawing 737], 7.00 to 8.00. `CCn1cc(C(F)(F)F)nc1-c1ccc(Cn2ncc3cnc(-c4c(OC)ncnc4C4CC4)nc32)cc1` [drawing 738] showed a pIC50 of 7.00 to 8.00. `COc1ncnc(C2CC2)c1-c1ncc2cnn(Cc3ccc(-c4nc(C(F)(F)F)cn4C4CC4)cc3)c2n1` [drawing 739] showed a pIC50 of 7.00 to 8.00. Still for that read-out and setting: for `CCn1cc(C(F)(F)F)nc1-c1ccc(Cn2ncc3cnc(-c4c(OC(C)(C)C)ncnc4C4CC4)nc32)cc1` [drawing 740] the value was 7.00 to 8.00; for `CCn1cc(C(F)(F)F)nc1-c1ccc(Cn2ncc3cnc(-c4c(OCCF)ncnc4C4CC4)nc32)cc1` [drawing 741], 7.00 to 8.00; for `[2H]C([2H])([2H])Oc1ncnc(C2CC2)c1-c1ncc2cnn(Cc3ccc(-c4nc(C(F)(F)F)cn4CC)cc3)c2n1` [drawing 744], 7.00 to 8.00. As to `COc1ncnc(C2CC2)c1-c1ncc2cnn(Cc3ccc(-c4nc(C(F)(F)F)cn4C)c(F)c3)c2n1` [drawing 746], the pIC50 is 7.00 to 8.00. Turning to `COc1ncnc(C2CCC2)c1-c1ncc2cnn(Cc3ccc(-c4nc(C(F)(F)F)cn4C)cc3)c2n1` [drawing 749], the pIC50 is 7.00 to 8.00. On the same count and under the same terms, for `CCn1cc(C(F)(F)F)nc1-c1ccc(Cn2ncc3cnc(-c4c(OC5CC5)ncnc4C4CC4)nc32)cc1` [drawing 750] the value was 7.00 to 8.00. On the same count and under the same terms, the figure for `CCn1cc(C(F)(F)F)nc1-c1ccc(Cn2ncc3cnc(-c4c(OC5CCC5)ncnc4C4CC4)nc32)cc1` [drawing 752] is 7.00 to 8.00. On the same count and under the same terms, for `CCn1cc(C(F)(F)F)nc1-c1ccc(Cn2ncc3cnc(-c4c(OC)ncnc4OC)nc32)cc1` [drawing 755] the value was 7.00 to 8.00; for `CC(C)Oc1ncnc(C2CC2)c1-c1ncc2cnn(Cc3ccc(-c4nc(C(F)(F)F)cn4C)cc3)c2n1` [drawing 756], 7.00 to 8.00; for `COc1ncnc(C(C)(C)C)c1-c1ncc2cnn(Cc3ccc(-c4nc(C(F)(F)F)cn4C)cc3)c2n1` [drawing 757], 7.00 to 8.00. The compound `COc1ncnc(C2CC2)c1-c1ncc2cnn(Cc3ccc(-c4nc(C(F)(F)F)cn4C)cc3F)c2n1` [drawing 758] gave a pIC50 of 7.00 to 8.00. For `COc1nc(C)nc(C2CC2)c1-c1ncc2cnn(Cc3ccc(-c4nc(C(F)(F)F)cn4C)cc3)c2n1` [drawing 760], the pIC50 was 7.00 to 8.00. The same measure, in the same setting: the figure for `CCn1cc(C(F)(F)F)nc1-c1ccc(Cn2ncc3cnc(-c4c(OC)cnn4C4CC4)nc32)cc1` [drawing 761] is 7.00 to 8.00. On the same count and under the same terms, the figure for `COc1ncnc(C2CC2)c1-c1ncc2cnn(Cc3ccc(-n4nc(C(F)F)cc4C)cc3)c2n1` [drawing 762] is 7.00 to 8.00; for `CCOc1ncnc(C2CC2)c1-c1ncc2cnn(Cc3ccc(-c4nc(C(F)(F)F)cn4C)cc3)c2n1` [drawing 763] it is 7.00 to 8.00. The same measure, in the same setting: the figure for `COc1ncnc(C2CC2)c1-c1ncc2cnn(Cc3ccc(-c4nc(C(F)(F)F)cn4CCF)cc3)c2n1` [drawing 764] is 7.00 to 8.00.
